{
  "source": "paper PMC5468247",
  "about": "“Development of a selective agonist for relaxin family peptide receptor 3” (Scientific Reports, 2017)",
  "key": {"[1]": {"molecular_target": "T1, human RXFP4 (Homo sapiens, UniProt Q8TDU9)", "T1 construct": "expressed in transfected cells; host or cells: HEK293T", "T1 sequence (Q8TDU9 whole entry)": "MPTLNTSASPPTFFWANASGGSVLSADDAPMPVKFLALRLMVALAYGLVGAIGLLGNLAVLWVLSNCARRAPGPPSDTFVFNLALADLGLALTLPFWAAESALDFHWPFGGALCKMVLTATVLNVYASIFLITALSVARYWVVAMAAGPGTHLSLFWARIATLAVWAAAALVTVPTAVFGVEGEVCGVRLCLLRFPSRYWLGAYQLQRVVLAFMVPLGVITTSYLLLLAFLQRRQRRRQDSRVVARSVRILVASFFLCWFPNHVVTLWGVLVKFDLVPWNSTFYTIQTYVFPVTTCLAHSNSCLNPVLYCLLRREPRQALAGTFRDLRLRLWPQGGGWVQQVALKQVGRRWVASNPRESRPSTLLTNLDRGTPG", "assay": "Receptor activation assay, CRE-controlled NanoLuc reporter", "format": "cell-based", "conditions": "for fold lower activation potency towards RXFP4 compared with R3/I5: relative to R3/I5", "from_the_text": "(§1) HEK293T cells transiently cotransfected with a CRE-controlled NanoLuc reporter vector and the expression construct of human RXFP3 or human RXFP4 were used for activation assays. The measured bioluminescence data are expressed as means ± SE (n = 3) and fitted to sigmoidal or linear curves using SigmaPlot 10.0.\n(§2) Briefly, HEK293T cells were transiently cotransfected with the NanoLuc reporter vector pNL1.2/CRE and the expression construct of human RXFP3 or human RXFP4. On the next day, transfected cells were trypsinised, seeded into 96-well plates, and continuously cultured for 24–36 h to ~90% confluence. To initiate activation assays, medium was removed and activation solution (serum-free DMEM medium plus 1% bovine serum albumin) containing 1.0 μM of forskolin and various concentrations of peptide was added (100 μl/well). After continuous culturing at 37 °C for 4 h, activation solution was removed and cells were lysed with lysis solution (100 μl/well, Promega). Cell lysates were then transferred to a white opaque 96-well plate (50 μl/well), mixed with freshly diluted substrate (50 μl/well), and bioluminescence was immediately measured on a SpectraMax M5 plate reader (Molecular Devices) in luminescence mode. The measured data were expressed as means ± SE (n = 3) and fitted to sigmoidal or linear curves using SigmaPlot 10.0 software."}, "[2]": {"molecular_target": "T2, human RXFP3 (Homo sapiens, UniProt Q9NSD7)", "T2 construct": "expressed in transfected cells; host or cells: HEK293T", "T2 sequence (Q9NSD7 1-469)": "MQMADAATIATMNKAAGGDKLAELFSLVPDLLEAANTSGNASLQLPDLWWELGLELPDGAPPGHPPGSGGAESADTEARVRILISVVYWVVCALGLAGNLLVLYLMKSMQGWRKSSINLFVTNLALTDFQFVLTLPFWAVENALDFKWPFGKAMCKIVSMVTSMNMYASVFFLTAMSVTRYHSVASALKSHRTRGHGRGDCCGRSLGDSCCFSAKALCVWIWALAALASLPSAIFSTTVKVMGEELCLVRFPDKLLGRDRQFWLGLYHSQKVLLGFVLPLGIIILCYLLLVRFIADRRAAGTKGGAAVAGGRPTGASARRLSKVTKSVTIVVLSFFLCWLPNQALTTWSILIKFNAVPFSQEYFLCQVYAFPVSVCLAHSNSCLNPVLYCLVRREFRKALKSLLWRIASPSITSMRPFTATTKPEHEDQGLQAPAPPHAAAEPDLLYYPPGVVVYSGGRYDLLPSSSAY", "assay": "Receptor activation assay, CRE-controlled NanoLuc reporter", "format": "cell-based", "conditions": "CRE-NanoLuc reporter, human RXFP3; for activation potency towards RXFP3, in words: compared with R3/I5", "from_the_text": "as §1, §2"}, "[3]": {"molecular_target": "T1, human RXFP4", "assay": "Receptor binding assay, NanoLuc-conjugated R3/I5 tracer competition", "conditions": "compared with R3/I5", "protocol": "(§3) Specific binding data are expressed as means ± SE (n = 3) and fitted to sigmoidal curves using SigmaPlot 10.0 software.\n(§4) Briefly, HEK293T cells were transiently transfected with an expression construct of human RXFP3 or human RXFP4. On the next day, transfected cells were trypsinised, seeded into 96-well plates, and continuously cultured for 24–36 h to ~100% confluence. […] After incubation at 21 °C for 2 h, binding solution was removed and cells were washed twice with ice-cold phosphate-buffered saline (200 μl/well for each wash). Thereafter, cells were lysed by lysis solution (100 μl/well, Promega, Madison, WI, USA) and cell lysates were transferred to a white opaque 96-well plate (50 μl/well). After mixing with freshly diluted substrate (50 μl/well), bioluminescence was immediately measured on a SpectraMax M5 plate reader (Molecular Devices, Sunnyvale, CA, USA) in luminescence mode. […] The calculated specific binding data were expressed as means ± standard error (SE; n = 3) and fitted to sigmoidal curves using SigmaPlot 10.0 software."}, "[4]": {"molecular_target": "T2, human RXFP3", "assay": "Receptor binding assay, NanoLuc-conjugated R3/I5 tracer competition", "conditions": "compared with R3/I5", "protocol": "as §3, §4"}},
  "data": [
    {"smiles": "CC[C@H](C)[C@@H]1NC(=O)[C@H](Cc2ccccc2)NC(=O)[C@H](CCC(=O)O)NC(=O)[C@H](CCCNC(=N)N)NC(=O)CNC(=O)[C@@H](NC(=O)[C@H](CC(C)C)NC(=O)[C@H](CCCNC(=N)N)NC(=O)[C@@H](NC(=O)CNC(=O)[C@H](Cc2ccc(O)cc2)NC(=O)[C@@H]2CCCN2C(=O)[C@H](C)NC(=O)[C@H](C)NC(=O)[C@H](CCCNC(=N)N)NC(=O)[C@@H]2CCC(=O)N2)C(C)C)CSSC[C@@H]2NC(=O)[C@@H](NC(=O)[C@H](CC(C)C)NC(=O)[C@@H](NC(=O)[C@H](CCC(N)=O)NC(=O)[C@H](CC(C)C)NC(=O)[C@H](CC(=O)O)NC(=O)[C@H](CCC(N)=O)NC(=O)[C@H](CCCNC(=N)N)NC(=O)[C@H](CO)NC(=O)[C@H](CCCNC(=N)N)NC(=O)[C@H](CCCNC(=N)N)NC(=O)[C@H](CO)NC(=O)[C@@H](N)CCCNC(=N)N)[C@@H](C)O)CSSC[C@H](NC(=O)CNC(=O)[C@H](CC(=O)O)NC(=O)[C@H]([C@@H](C)O)NC2=O)C(=O)N[C@@H](CO)C(=O)N[C@@H](CCSC)C(=O)N[C@@H]([C@@H](C)O)C(=O)N[C@@H](CC(=O)O)C(=O)N[C@@H](CC(C)C)C(=O)N[C@@H](CO)C(=O)N[C@@H](C)C(=O)N[C@@H](CC(C)C)C(=O)N[C@H](C(=O)O)CSSC[C@@H](C(=O)N[C@@H](C)C(=O)NCC(=O)N[C@@H](CO)C(=O)N[C@@H](CCCNC(=N)N)C(=O)N[C@@H](Cc2c[nH]c3ccccc23)C(=O)O)NC(=O)[C@H]([C@@H](C)O)NC(=O)[C@H](Cc2ccccc2)NC(=O)[C@H]([C@@H](C)CC)NC(=O)[C@H](C(C)C)NC(=O)[C@H](C)NC(=O)[C@H](CCCNC(=N)N)NC1=O", "note": "[[G(B23)A]R3/I5]", "values": [
      {"measurement": "fold lower activation potency towards RXFP4 compared with R3/I5", "setting": "[1]", "value": "~ 100 fold"},
      {"measurement": "activation potency towards RXFP3, in words", "setting": "[2]", "value": "lost all activation potency"},
      {"measurement": "binding potency towards RXFP4, in words", "setting": "[3]", "value": "retained high binding potency"},
      {"measurement": "binding potency towards RXFP3, in words", "setting": "[4]", "value": "retained considerable binding potency"}
    ]},
    {"smiles": "CC[C@H](C)[C@@H]1NC(=O)[C@H](Cc2ccccc2)NC(=O)[C@H](CCC(=O)O)NC(=O)[C@H](CCCNC(=N)N)NC(=O)CNC(=O)[C@@H](NC(=O)[C@H](CC(C)C)NC(=O)[C@H](CCCNC(=N)N)NC(=O)[C@@H](NC(=O)CNC(=O)[C@H](Cc2ccc(O)cc2)NC(=O)[C@@H]2CCCN2C(=O)[C@H](C)NC(=O)[C@H](C)NC(=O)[C@H](CCCNC(=N)N)NC(=O)[C@@H]2CCC(=O)N2)C(C)C)CSSC[C@@H]2NC(=O)[C@@H](NC(=O)[C@H](CC(C)C)NC(=O)[C@@H](NC(=O)[C@H](CCC(N)=O)NC(=O)[C@H](CC(C)C)NC(=O)[C@H](CC(=O)O)NC(=O)[C@H](CCC(N)=O)NC(=O)[C@H](CCCNC(=N)N)NC(=O)[C@H](CO)NC(=O)[C@H](CCCNC(=N)N)NC(=O)[C@H](CCCNC(=N)N)NC(=O)[C@H](CO)NC(=O)[C@@H](N)CCCNC(=N)N)[C@@H](C)O)CSSC[C@H](NC(=O)CNC(=O)[C@H](CC(=O)O)NC(=O)[C@H]([C@@H](C)O)NC2=O)C(=O)N[C@@H](CO)C(=O)N[C@@H](CCSC)C(=O)N[C@@H]([C@@H](C)O)C(=O)N[C@@H](CC(=O)O)C(=O)N[C@@H](CC(C)C)C(=O)N[C@@H](CO)C(=O)N[C@@H](C)C(=O)N[C@@H](CC(C)C)C(=O)N[C@H](C(=O)O)CSSC[C@@H](C(=O)NCC(=O)N[C@@H](CCC(=O)O)C(=O)N[C@@H](CO)C(=O)N[C@@H](CCCNC(=N)N)C(=O)N[C@@H](Cc2c[nH]c3ccccc23)C(=O)O)NC(=O)[C@H]([C@@H](C)O)NC(=O)[C@H](Cc2ccccc2)NC(=O)[C@H]([C@@H](C)CC)NC(=O)[C@H](C(C)C)NC(=O)[C@H](C)NC(=O)[C@H](CCCNC(=N)N)NC1=O", "note": "[[G(B24)E]R3/I5]", "values": [
      {"measurement": "activation potency towards RXFP4, in words", "setting": "[1]; compared with R3/I5", "value": "lost all activation potency"},
      {"measurement": "activation potency towards RXFP3, in words", "setting": "[2]", "value": "lost all activation potency"},
      {"measurement": "binding potency towards RXFP4, in words", "setting": "[3]", "value": "retained low binding potency"},
      {"measurement": "binding potency towards RXFP3, in words", "setting": "[4]", "value": "retained low binding potency"}
    ]},
    {"smiles": "CC[C@H](C)[C@@H]1NC(=O)[C@H](Cc2ccccc2)NC(=O)[C@H](CCC(=O)O)NC(=O)[C@H](CCCNC(=N)N)NC(=O)CNC(=O)[C@@H](NC(=O)[C@H](CC(C)C)NC(=O)[C@H](CCCNC(=N)N)NC(=O)[C@@H](NC(=O)CNC(=O)[C@H](Cc2ccc(O)cc2)NC(=O)[C@@H]2CCCN2C(=O)[C@H](C)NC(=O)[C@H](C)NC(=O)[C@H](CCCNC(=N)N)NC(=O)[C@@H]2CCC(=O)N2)C(C)C)CSSC[C@@H]2NC(=O)[C@@H](NC(=O)[C@H](CC(C)C)NC(=O)[C@@H](NC(=O)[C@H](CCC(N)=O)NC(=O)[C@H](CC(C)C)NC(=O)[C@H](CC(=O)O)NC(=O)[C@H](CCC(N)=O)NC(=O)[C@H](CCCNC(=N)N)NC(=O)[C@H](CO)NC(=O)[C@H](CCCNC(=N)N)NC(=O)[C@H](CCCNC(=N)N)NC(=O)[C@H](CO)NC(=O)[C@@H](N)CCCNC(=N)N)[C@@H](C)O)CSSC[C@H](NC(=O)CNC(=O)[C@H](CC(=O)O)NC(=O)[C@H]([C@@H](C)O)NC2=O)C(=O)N[C@@H](CO)C(=O)N[C@@H](CCSC)C(=O)N[C@@H]([C@@H](C)O)C(=O)N[C@@H](CC(=O)O)C(=O)N[C@@H](CC(C)C)C(=O)N[C@@H](CO)C(=O)N[C@@H](C)C(=O)N[C@@H](CC(C)C)C(=O)N[C@H](C(=O)O)CSSC[C@@H](C(=O)NCC(=O)N[C@@H](CO)C(=O)N[C@@H](CCCNC(=N)N)C(=O)N[C@@H](Cc2c[nH]c3ccccc23)C(=O)O)NC(=O)[C@H]([C@@H](C)O)NC(=O)[C@H](Cc2ccccc2)NC(=O)[C@H]([C@@H](C)CC)NC(=O)[C@H](C(C)C)NC(=O)[C@H](C)NC(=O)[C@H](CCCNC(=N)N)NC1=O", "note": "[[∆B23]R3/I5]", "values": [
      {"measurement": "fold lower activation potency towards RXFP4 compared with R3/I5", "setting": "[1]", "value": "~ 300 fold"},
      {"measurement": "fold lower activation potency towards RXFP3 compared with R3/I5", "setting": "[2]; relative to R3/I5", "value": "~ 300 fold"},
      {"measurement": "binding potency towards RXFP4, in words", "setting": "[3]", "value": "retained considerable binding potency"},
      {"measurement": "binding potency towards RXFP3, in words", "setting": "[4]", "value": "retained considerable binding potency"}
    ]},
    {"smiles": "CC[C@H](C)[C@@H]1NC(=O)[C@H](Cc2ccccc2)NC(=O)[C@H](CCC(=O)O)NC(=O)[C@H](CCCNC(=N)N)NC(=O)CNC(=O)[C@@H](NC(=O)[C@H](CC(C)C)NC(=O)[C@H](CCCNC(=N)N)NC(=O)[C@@H](NC(=O)CNC(=O)[C@H](Cc2ccc(O)cc2)NC(=O)[C@@H]2CCCN2C(=O)[C@H](C)NC(=O)[C@H](C)NC(=O)[C@H](CCCNC(=N)N)NC(=O)[C@@H]2CCC(=O)N2)C(C)C)CSSC[C@@H]2NC(=O)[C@@H](NC(=O)[C@H](CC(C)C)NC(=O)[C@@H](NC(=O)[C@H](CCC(N)=O)NC(=O)[C@H](CC(C)C)NC(=O)[C@H](CC(=O)O)NC(=O)[C@H](CCC(N)=O)NC(=O)[C@H](CCCNC(=N)N)NC(=O)[C@H](CO)NC(=O)[C@H](CCCNC(=N)N)NC(=O)[C@H](CCCNC(=N)N)NC(=O)[C@H](CO)NC(=O)[C@@H](N)CCCNC(=N)N)[C@@H](C)O)CSSC[C@H](NC(=O)CNC(=O)[C@H](CC(=O)O)NC(=O)[C@H]([C@@H](C)O)NC2=O)C(=O)N[C@@H](CO)C(=O)N[C@@H](CCSC)C(=O)N[C@@H]([C@@H](C)O)C(=O)N[C@@H](CC(=O)O)C(=O)N[C@@H](CC(C)C)C(=O)N[C@@H](CO)C(=O)N[C@@H](C)C(=O)N[C@@H](CC(C)C)C(=O)N[C@H](C(=O)O)CSSC[C@@H](C(=O)N[C@@H](CO)C(=O)NCC(=O)N[C@@H](CO)C(=O)N[C@@H](CCCNC(=N)N)C(=O)N[C@@H](Cc2c[nH]c3ccccc23)C(=O)O)NC(=O)[C@H]([C@@H](C)O)NC(=O)[C@H](Cc2ccccc2)NC(=O)[C@H]([C@@H](C)CC)NC(=O)[C@H](C(C)C)NC(=O)[C@H](C)NC(=O)[C@H](CCCNC(=N)N)NC1=O", "note": "[[G(B23)S]R3/I5]", "values": [
      {"measurement": "fold lower activation potency towards RXFP4 compared with R3/I5", "setting": "[1]", "value": "~ 100 fold"},
      {"measurement": "activation potency towards RXFP3, in words", "setting": "[2]", "value": "lost all activation potency"},
      {"measurement": "binding potency towards RXFP4, in words", "setting": "[3]", "value": "retained high binding potency"},
      {"measurement": "binding potency towards RXFP3, in words", "setting": "[4]", "value": "retained considerable binding potency"}
    ]}
  ]
}
